These results are taken from patent US12274774B2, “Cosmetic composition derived from natural products for improving skin health” (SEOUL NATIONAL UNIVERSITY R&DB FOUNDATION, priority 2021, dated 2025).

SMILES strings stand for the structures.

For data set [1], the system named is Human-derived normal fibroblasts. The data set is described as follows: Cell proliferation efficacy (MTT method). Type of data set: cell-based. As to conditions: 10 μM, 72 hours culture, FIG. 1. How it is done: • 1) Human-derived normal fibroblasts were cultured. • 2) The cells were inoculated in an appropriate number, and after 24 hours, starvation was performed for 24 hours. • 3) The cells were cultured for 72 hours in media treated with samples at different concentrations, respectively. • 4) Cell activity was measured and analyzed by the MTT method.

Data set [2] is described as follows: Antioxidant efficacy (DPPH assay). The class given is biochemical. As to conditions: 1 μM to 50 μM, absorbance at 517 nm, FIG. 2. How it is done:
• 1) 115 μL of 70% ethanol was dispensed to each of 96 wells. • 2) 5 μL of each sample and positive control was dispensed, and the absorbance was measured at 517 nm to measure the absorbance before the reaction. • 3) 80 μL of a DPPH solution was dispensed. • 4) After the reaction, the absorbance was measured at 517 nm, and the result was analyzed by using the absorbance values before and after the reaction.

In data set [3] the test system is B16F10 cells. The data set is described as follows: Whitening efficacy: inhibition of B16F10 intracellular melanin synthesis. The class given is cell-based. The conditions noted are these: 10 μM to 50 μM, α-MSH treated B16F10 cells, 72 hours, FIG. 3. How it is done:
• 1) B16F10 cells were cultured. • 2) The cells were inoculated in an appropriate number, and after 24 hours, all groups except blank were treated with α-MSH and samples, respectively. • 3) The cells were cultured for 72 hours in culture media treated with respective samples. • 4) The cells were lysed, the supernatant was separated, and the absorbance value of the supernatant was measured. • 5) The amount of protein in each supernatant was measured and analyzed by the BCA method. • 6) The melanin synthesis value measured in the supernatant was corrected into the amount of protein to calculate the amount of melanin synthesis per unit cell.

For data set [4], the system named is B16F10 cells. The data set is described as follows: Whitening efficacy: inhibition of B16F10 extracellular melanin synthesis. The class given is cell-based. The conditions noted are these: 10 μM to 50 μM, α-MSH treated B16F10 cells, 72 hours, culture media, FIG. 4. The method, then:
• 1) B16F10 cells were cultured. • 2) The cells were inoculated in an appropriate number, and after 24 hours, all groups except blank were treated with α-MSH and samples, respectively. • 3) The cells were cultured for 72 hours in culture media treated with respective samples. • 4) The absorbance values of the cell culture media were measured. • 5) The cells were lysed, the supernatant was separated, and the amount of protein was measured by the BCA method to correct the amount of melanin synthesis. • 6) The measured melanin synthesis value was corrected into the amount of protein to calculate the amount of melanin synthesis per unit cell.

Data set [5] concerns the target T1, tyrosinase (melanin synthase) (Homo sapiens, UniProt P14679).
T1 construct: The cells were lysed, the supernatant was separated; endogenous in cells; host or cells: human-derived normal pigment cells
T1 sequence (P14679 19-529): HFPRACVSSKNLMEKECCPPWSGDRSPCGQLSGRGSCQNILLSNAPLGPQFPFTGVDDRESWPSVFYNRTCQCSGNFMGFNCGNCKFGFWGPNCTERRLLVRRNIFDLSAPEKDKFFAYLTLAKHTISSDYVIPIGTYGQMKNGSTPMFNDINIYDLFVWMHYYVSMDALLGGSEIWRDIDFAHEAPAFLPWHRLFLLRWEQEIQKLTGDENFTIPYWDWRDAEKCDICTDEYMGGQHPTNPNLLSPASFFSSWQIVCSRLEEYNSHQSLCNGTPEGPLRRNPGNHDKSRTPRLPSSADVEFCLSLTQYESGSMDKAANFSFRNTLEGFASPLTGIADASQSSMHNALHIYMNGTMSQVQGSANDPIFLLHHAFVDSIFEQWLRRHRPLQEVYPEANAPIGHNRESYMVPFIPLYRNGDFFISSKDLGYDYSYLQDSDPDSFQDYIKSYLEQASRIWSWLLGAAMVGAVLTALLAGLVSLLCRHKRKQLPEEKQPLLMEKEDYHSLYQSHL
The data set is described as follows: Whitening efficacy: inhibition of tyrosinase activity in pigment cells. As to conditions: 1 μM to 50 μM, human-derived normal pigment cells, 72 hours, FIG. 5. The class given is cell-based. How it is done: • 1) Human-derived normal pigment cells were inoculated in an appropriate number and cultured for 1 day. • 2) The culture medium was replaced with culture media treated with respective samples and cultured for 72 hours. • 3) The cells were lysed, the supernatant was separated, and the absorbance value of the supernatant was measured at 475 nm at 30 minute intervals while the supernatant was allowed to react with dopa, a reactant, at 37° C. • 4) The amount of protein in the cell lysis supernatant was measured by the BCA method to correct a tyrosinase (melanin synthase) measurement value.

In data set [6] the test system is Human-derived normal fibroblasts. The data set is described as follows: Wrinkle improvement efficacy (collagen synthesis). The conditions noted are these: 10 μM to 20 μM, UV-irradiated fibroblasts, FIG. 6. Type of data set: cell-based. The method, then: • 1) Human-derived normal fibroblasts were inoculated at 2×10^5/6 well and cultured. • 2) Culture was performed for 1 day under starvation conditions. • 3) The cells were treated with samples at different concentrations, respectively, and cultured for 24 hours. • 4) The cells were washed and then irradiated with UV, followed by culture for 48 hours. • 5) The amount of collagen expression in the cell culture medium was measured and analyzed.

The test system of data set [7] is Propionibacterium acnes. The data set is described as follows: Anti-acne efficacy (antibacterial efficacy). The class given is cell-based. As to conditions: 20 μM to 200 μM, 72 hours anaerobic culture, FIG. 7. The method, then: • 1) Propionibacterium acnes, anaerobic acne bacteria, were cultured under anaerobic culture conditions. • 2) The strain was prepared by adjusting the turbidity to McFarland standard NO. 1, followed by dilution of 1/20 in a liquid culture medium. • 3) Liquid nutrient media were treated with samples at different concentrations, respectively. • 4) After 100 μL of each of the liquid nutrient media treated with the samples was dispensed, 10 μL of the prepared strain was inoculated to each medium. • 5) After the strain was cultured for 72 hours under anaerobic culture conditions, the number of bacteria was measured and analyzed.

The nature of data set [8]: Measurement of absorbance (spectrophotometer). Type of data set: physicochemical. The conditions noted are these: 10 μM to 50 μM in organic solvent; UV-A (320 nm to 400 nm), UV-B (280 nm to 320 nm), UV-C (200 nm to 280 nm), FIG. 8. How it is done:
• 1) Resveratrone was dissolved in an organic solvent at a concentration of 10 μM to 50 μM. • 2) The absorbance of resveratrone was measured by using a spectrophotometer.

As to `CC(=O)/C=C/c1ccc2cc(O)cc(O)c2c1` [resveratrone, Resveratrone], the “increase in number of cells” value in data set [1] came out at 20%. The radical scavenging ability result in data set [2] is “radical scavenging ability was confirmed”. Also, in data set [3], the “inhibition of intracellular melanin synthesis” value is listed as “inhibition of melanin synthesis was confirmed”. Besides, the “inhibition of extracellular melanin synthesis” value in data set [4] is “inhibition of melanin synthesis was confirmed”. In addition, in data set [5], the “inhibition of tyrosinase activity” value is given as “inhibition of tyrosinase activity was confirmed”. For the same molecule, the “increase in collagen synthesis” value in data set [6] is given as “increase in collagen synthesis was confirmed”. The “inhibition of bacterial growth” value in data set [7] is given as “inhibition of bacterial growth was confirmed”. For the same molecule, the UV absorption entry in data set [8] is on record as “absorption was confirmed in all UV regions”.
